Source: ChEMBL document CHEMBL1156904, “Part II: piperazinyl-glutamate-pyridines as potent orally bioavailable P2Y12 antagonists for inhibition of platelet aggregation” (Bioorg Med Chem Lett, 2010)

Key:
P2Y purinoceptor 12 = P2Y purinoceptor 12 (Homo sapiens, UniProt Q9H244); assay: Inhibition of human P2Y12 receptor expressed in CHO cells
[1] = Antiplatelet activity in human platelet rich plasma assessed as inhibition of ADP-induced platelet aggregation; assay type: functional
[2] = Antiplatelet activity in human platelet rich plasma assessed as inhibition of ADP-induced platelet aggregation relative to AZD-6140; assay type: functional
[3] = Metabolic stability in human microsomes; assay type: ADME, Microsome
[4] = Metabolic stability in rat microsomes; assay type: ADME, Microsome

Chain of P2Y purinoceptor 12 (Q9H244 whole entry): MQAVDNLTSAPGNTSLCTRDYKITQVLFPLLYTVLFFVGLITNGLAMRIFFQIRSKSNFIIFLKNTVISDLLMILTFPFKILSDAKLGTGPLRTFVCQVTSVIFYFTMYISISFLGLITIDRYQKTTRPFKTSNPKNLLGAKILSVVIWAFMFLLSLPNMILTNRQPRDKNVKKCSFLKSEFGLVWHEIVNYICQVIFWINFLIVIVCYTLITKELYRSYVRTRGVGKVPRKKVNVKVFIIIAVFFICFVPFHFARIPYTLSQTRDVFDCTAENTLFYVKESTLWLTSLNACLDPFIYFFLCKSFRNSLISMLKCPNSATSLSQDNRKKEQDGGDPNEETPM

Row | Compound | Ki (P2Y purinoceptor 12) | IC50 [1] | fold change (FC) [2] | Stability [3] | Stability [4]
1 | CCCCCOC(=O)N1CCN(C(=O)[C@H](CCC(=O)O)NC(=O)c2cc(N3CCN(CCN)CC3)cc(-c3ccccc3)n2)CC1 | 0.0045 µM | 1.1 µM | 1.6 | Stable | Stable
2 | CCCCCOC(=O)N1CCN(C(=O)[C@H](CCC(=O)O)NC(=O)c2cc(N3CC(OC)C3)cc(-c3ccccc3)n2)CC1 | 0.002 µM | > 10 µM | – | Stable | Stable
3 | CCCCCOC(=O)N1CCN(C(=O)[C@H](CCC(=O)O)NC(=O)c2cc(N3CCCC(CNC(C)=O)C3)cc(-c3ccccc3)n2)CC1 (some centres undefined) | 0.0099 µM | 2.9 µM | 3.4 | Stable | Stable
4 | CCCCOC(=O)N1CCN(C(=O)[C@H](CCC(=O)O)NC(=O)c2cc(N3CCC(CN(C)C)CC3)cc(-c3ccccc3)n2)CC1 | 0.0032 µM | 0.89 µM | 1.3 | Stable | Stable
5 | CCCCCOC(=O)N1CCN(C(=O)[C@H](CCC(=O)O)NC(=O)c2cc(N3CC(CNC)C3)cc(-c3ccccc3)n2)CC1 | 0.0071 µM | 1.3 µM | 1.9 | Stable | Stable
6 | CCCCCOC(=O)N1CCN(C(=O)[C@H](CCC(=O)O)NC(=O)c2cc(N3CCC[C@H](O)C3)cc(-c3ccccc3)n2)CC1 | 0.018 µM | 2.4 µM | 3.7 | Stable | Stable
7 | CCCCCOC(=O)N1CCN(C(=O)[C@H](CCC(=O)O)NC(=O)c2cc(N3CC(C(N)=O)C3)cc(-c3ccccc3)n2)CC1 | 0.00064 µM | 1.9 µM | – | Stable | Stable
8 | CCCCCOC(=O)N1CCN(C(=O)[C@H](CCC(=O)O)NC(=O)c2cc(N3CC[C@@H](C(=O)N(CC)CC)C3)cc(-c3ccccc3)n2)CC1 | 0.0026 µM | 6.6 µM | 5 | Stable | Stable
9 | CCCCOC(=O)N1CCN(C(=O)[C@H](CCC(=O)O)NC(=O)c2cc(N3CCC(C(=O)N(C)C)CC3)cc(-c3ccccc3)n2)CC1 | 0.0026 µM | 0.63 µM | 0.53 | Stable | Stable
10 | CCCCOC(=O)N1CCN(C(=O)[C@H](CCC(=O)O)NC(=O)c2cc(N3CCC(CN4CCCC4)CC3)cc(-c3ccccc3)n2)CC1 | 0.0015 µM | 0.8 µM | 1 | Stable | Stable
11 | CCCCOC(=O)N1CCN(C(=O)[C@H](CCC(=O)O)NC(=O)c2cc(N3CCC(CNCC)CC3)cc(-c3ccccc3)n2)CC1 | 0.0038 µM | 1.3 µM | 1.4 | Stable | Stable
12 | CCCCCOC(=O)N1CCN(C(=O)[C@H](CCC(=O)O)NC(=O)c2cc(N3CCN(C(=O)N4CCCC4)CC3)cc(-c3ccccc3)n2)CC1 | 0.01 µM | 6.1 µM | 14 | Stable | Stable
13 | CCCCCOC(=O)N1CCN(C(=O)[C@H](CCC(=O)O)NC(=O)c2cc(N3CCCC(COC)C3)cc(-c3ccccc3)n2)CC1 (some centres undefined) | 0.022 µM | 11 µM | – | Stable | Stable
14 | CCCCCOC(=O)N1CCN(C(=O)[C@H](CCC(=O)O)NC(=O)c2cc(N3CC(N(C)C)C3)cc(-c3ccccc3)n2)CC1 | 0.0055 µM | 2.7 µM | – | Stable | Stable
15 | CCCCCOC(=O)N1CCN(C(=O)[C@H](CCC(=O)O)NC(=O)c2cc(N3CC(N4CCOCC4)C3)cc(-c3ccccc3)n2)CC1 | 0.0033 µM | 1.4 µM | – | Stable | Stable
16 | CCCCCOC(=O)N1CCN(C(=O)[C@H](CCC(=O)O)NC(=O)c2cc(N3CC(C(=O)NC)C3)cc(-c3ccccc3)n2)CC1 | 0.0017 µM | 2 µM | – | Stable | Stable
